From US20040039042A1, “Method of transdermal drug delivery” (priority 2002, published 2004)

What was measured:
[1] = cited from earlier work
[2] = Powdered drug mixed with Ocean® and rubbed into the skin over arthritic joints of patients; type: in vivo, human; conditions: for side effects normally encountered when taking the drug: patients unable to continue the drugs because of GI toxicity, transdermal application in Ocean®
Excerpt: The present invention is a method for delivering drugs transdermally, especially insoluble drugs. The powdered form of a drug, such as that contained in the capsules of Vioxx® and Celebrex®, was mixed with Ocean® to form a mixture. The mixture was then rubbed into the skin at the needed location, for example, an arthritic joint, by volunteer subjects suffering from arthritis in different joints. The Vioxx® or Celebrex® suspension in Ocean® then penetrated the outer layer of the skin, traveled through the stratum corneum, dermis, and hypodermis, and entered the target tissue. […] Therefore, the present invention provides a method of delivery for NSAIDs, such as Vioxx® and Celebrex®, that can inhibit COX-2 at the inflammation site, without ever entering the GI tract, relieving the patient of any GI toxicity that may be caused by the drug.
In summary, the method of this patent for drug delivery has been tried by a few patients with severe arthritis. These patients were unable to continue using either Vioxx® or Celebrex® because of the severe GI toxicity those drugs caused. The patients opened the capsules of the drugs, mixed the powdered drug with Ocean®, and applied the solution to the skin of the arthritic area.

[3] = Application of Carafate® to root canal wounds or dry sockets in dental patients; type: in vivo, human; conditions: applied to root canal wounds or dry sockets
Excerpt: Wounds in the mouth are especially prone to infection because of the dark, moist environment, the availability of energy sources from the food that is eaten, and the large numbers of microbes in the mouth. After a root canal or removal of a tooth, a patient is especially prone to infection since the open wound is an idea location for bacteria to settle, and because such a wound is hard to clean.

Row | Compound | solubility in aqueous media ([1]; aqueous media) | side effects normally encountered when taking the drug [2] | solubility in acetone ([1]; acetone) | solubility in ethanol ([1]; ethanol) | solubility in isopropyl acetate ([1]; isopropyl acetate) | solubility in methanol ([1]; methanol) | solubility in octanol ([1]; octanol) | solubility in water ([1]; water) | relief from arthritis ([2]; patients with severe arthritis, powdered drug from capsules mixed with Ocean®, applied to skin of the arthritic area) | time after application until pain and symptoms are reduced ([2]; suspension in Ocean® rubbed into the skin closest to the affected arthritic joint, volunteer subjects) | infection of the wound area ([3]; a number of dental patients) | healing process ([3]; dental patients) | pain and swelling in wounds ([3]; dental patients)
1 | Cc1ccc(-c2cc(C(F)(F)F)nn2-c2ccc(S(N)(=O)=O)cc2)cc1 [Celebrex®, 4-[5-(4-methylphenyl)-3-(triflouromethyl)-1 H-pyrazol-1-yl] benzenesulfonamide] | low solubility | without the side effects |  |  |  |  |  |  |  |  |  |  | 
2 | CS(=O)(=O)c1ccc(C2=C(c3ccccc3)C(=O)OC2)cc1 [Vioxx®, 4-[4-(methyl-sulfonyl)phenyl]-3-phenyl-2(5H)-furanone] |  | without the side effects | sparingly soluble | very slightly soluble | slightly soluble | slightly soluble | practically insoluble | insoluble | relief from their arthritis | Within minutes |  |  | 
3 | α-D-glucopyranoside, β-D-frucofuranosyl-, octakis-(hydrogen sulfate), aluminum complex [Carafate®] |  |  |  |  |  |  |  |  |  |  | inhibits infection | hastens the healing process | reduce pain and swelling
